In patent US8026362B2, “Non-nucleoside reverse transcriptase inhibitors” (Roche Palo Alto LLC, priority 2007, dated 2011):

Tests used:
HIV-1 RT = HIV-1 RT (Human immunodeficiency virus type 1 group M subtype B, UniProt P04585); assay: HIV-1 Reverse Transcriptase Assay (RNA-dependent DNA polymerase activity, SPA); type: biochemical; conditions: 30° C., 30 min, 10% DMSO
Experimental: RNA-dependent DNA polymerase activity was measured using a biotinylated primer oligonucleotide and tritiated dNTP substrate. Newly synthesized DNA was quantified by capturing the biotinylated primer molecules on streptavidin coated Scintillation Proximity Assay (SPA) beads (Amersham). The sequences of the polymerase assay substrate were: 18 nt DNA primer, 5′-Biotin/GTC CCT GTT CGG GCG CCA-3′; 47 nt RNA template, 5′-GGGUCUCUCUGGUUAGACCACUCUAGCAGUGGCGCCCGAACAGGGAC-3′. The biotinylated DNA primer was obtained from the Integrated DNA Technologies Inc. and the RNA template was synthesized by Dharmacon. The DNA polymerase assay (final volume 50 μl) contained 32 nM biotinylated DNA primer, 64 nM RNA substrate, dGTP, dCTP, dTTP (each at 5 μM), 103 nM [^3H]-dATP (specific activity=[…]), in 45 mM Tris-HCl, pH 8.0, 45 mM NaCl, 2.7 mM Mg(CH3COO)2, 0.045% Triton X-100 w/v, 0.9 mM EDTA. The reactions contained 5 ul of serial compound dilutions in 100% DMSO for IC50 determination and the final concentrations of DMSO were 10%. Reactions were initiated by the addition of 30 μl of the HIV-RT enzyme (final concentrations of 1-3 nM). Protein concentrations were adjusted to provide linear product formation for at least 30 min of incubation. After incubation at 30° C. for 30 min, the reaction was quenched by addition of 50 μl of 200 mM EDTA (pH 8.0) and […] SA-PVT SPA beads (Amersham, RPNQ0009, reconstituted in 20 mM Tris-HCl, pH 8.0, 100 mM EDTA and 1% BSA). The beads were left to settle overnight and the SPA signals were counted in a 96-well top counter-NXT (Packard).

[1] = tested on: HXB2-strain of HIV in MT4 cells; assay: Antiviral assay: protection of HIV-infected MT4 cells from cell death (MTT); type: cell-based; conditions: Human immunodeficiency virus 1, 120 h; MT4 cells infected with HXB2-strain of HIV, 5 days, MTT viability
Experimental: Anti-HIV antiviral activity was assessed using an adaptation of the method of Pauwels et al. {Pauwels et al., J Virol Methods 1988 20:309-321}. The method is based on the ability of compounds to protect HIV-infected T lymphoblastoid cells (MT4 cells) from cell-death mediated by the infection. The endpoint of the assay was calculated as the concentration of compound at which the cell viability of the culture was preserved by 50% (‘50% inhibitory concentration’, IC50). The cell viability of a culture was determined by the uptake of soluble, yellow 3-[4,5-dimethylthiazol-2-yl]-2,5-diphenyltetrazolium bromide (MTT) and its reduction to a purple insoluble formazan salt. After solubilization, spectrophotometric methods were employed to measure the amount of formazan product. […]
A fresh solution of 5 mg/mL MTT was prepared in 0.01 M phosphate buffered saline, pH 7.2 and 20 microliters added to each culture. […] When the formazan deposit was fully solubilized by further mixing, the absorbance (OD) of the cultures was measured at 540 nm and 690 nm wavelength (690 nm readings were used as blanks for artifacts between wells). The percent protection for each treated culture was then calculated from the equation: […]

Structure (SMILES)	melting point [°C]	IC50 (HIV-1 RT) [nM]	IC50 [1] [nM]
N#Cc1cc(Cl)cc(Oc2c(Br)ccc(CN3CC(=O)NC3=O)c2F)c1 [Compound I-20, 3-[6-Bromo-3-(2,4-dioxo-imidazolidin-1-ylmethyl)-2-fluoro-phenoxy]-5-chloro-benzonitrile]	131.5 to 132.8	9	4.2
Cc1cn(Cc2ccc(Br)c(Oc3cc(Cl)cc(C#N)c3)c2F)c(=O)[nH]c1=O [Compound I-2, 3-[6-Bromo-2-fluoro-3-(5-methyl-2,4-dioxo-3,4-dihydro-2H-pyrimidin-1-ylmethyl)-phenoxy]-5-chloro-benzonitrile]	223.1 to 224.2	3.9	3.1
Cn1cc(Cc2ccc(Br)c(Oc3cc(Cl)cc(C#N)c3)c2F)c(=O)[nH]c1=O [Compound I-31, 3-[6-Bromo-2-fluoro-3-(1-methyl-2,4-dioxo-1,2,3,4-tetrahydro-pyrimidin-5-ylmethyl)-phenoxy]-5-chloro-benzonitrile]	226 to 227	5.9	–
Cc1cn(Cc2ccc(Br)c(Oc3cc(C#N)cc(C#N)c3)c2F)c(=O)[nH]c1=O [Compound I-8, 5-[6-Bromo-2-fluoro-3-(5-methyl-2,4-dioxo-3,4-dihydro-2H-pyrimidin-1-ylmethyl)-phenoxy]-isophthalonitrile]	235.6 to 236	4.3	–
N#Cc1cc(Cl)cc(Oc2c(Br)ccc(CN3CC(=O)NC3=S)c2F)c1 [Compound I-28, 3-[6-Bromo-2-fluoro-3-(4-oxo-2-thioxo-imidazolidin-1-ylmethyl)-phenoxy]-5-chloro-benzonitrile]	172 to 173	86	–
